Source: patent US20240190841A1, “MODULATORS OF BCL6 PROTEOLYSIS AND ASSOCIATED METHODS OF USE” (Arvinas Operations, Inc., priority 2022, published 2024)

Target: T1, BCL6 (Homo sapiens, UniProt P41182)
T1 construct: endogenous in cells; host or cells: T47D breast cancer epithelial cells
Assay: Immunofluorescence high content imaging of BCL6 degradation in T47D cells
Format: cell-based
Details: T47D breast cancer epithelial cells, 3 days incubation
Method: Immunofluorescence Protocol for High Content Imaging of BCL6
T47D cells were seeded in 100 μl volume of RPMI11640-10% FBS in a 96-well black/clear bottom plates for adherent lines (Corning #3904).
Day 1. T47D breast cancer epithelial cells were seeded at a density so that confluence is ˜70-90% at endpoint. Cells were seeded at 7K/0.1 mL/well the morning prior to the addition of exemplary bifunctional degradation compounds.
Day 2. Prepare an 11 point 3-fold serial dilution of exemplary bifunctional compound in DMSO and aliquot an appropriate volume to cell growth media to generate a 2× final concentration of exemplary bifunctional compound. Add an equal volume (0.1 ml) of 2× exemplary bifunctional compound/media mix to previously plated cells, for a final top concentration in aqueous cell growth media of 0.1 or 1 μM. Incubate for 3 days at 37° C., 5% CO2.
Day 5 Immunofluorescence. Discard cell media. Wash wells with 200 μl of room temperature phosphate-buffered saline (PBS). Prepared 4% paraformaldehyde (PFA) from 16% PFA (Electron Microscopy Sciences #15710) using 1×PBS. Fifty μL of 4% PF was added to each well and incubate for 15 minutes at room temperature to fix the cells. The PFA was aspirated and the cells washed twice with PBS (200 μL)).
Prepared 0.1% Triton X-100 in PBS using 10% triton X-100 stock. The cells were permeabilized by adding 100 μL of the 0.1% Triton X-100 in PBS to each well to permeabilize cells and incubating at room temperature for 15 minutes. Cells were washed twice with PBS.
Prepared 3% BSA/PBS (from Thermofisher #37515 Blocker BSA in TBS, 10%), and 100 μL was added to each well. The cells were incubated for at least 1 hour at room temperature.
Prepared 1% BSA/PBS using Blocker BSA/PBS, and the 3% BSA/PBS removed from the wells.
For no primary antibody controls, 50 μL 1% BSA/PBS was added.
Primary antibody (BCL6 Rb Ab, CST-14895, Cell Signaling) was diluted 1:300 in 1% BSA/PBS using Blocker BSA/PBS.
Fifty μl of primary antibody added to all remaining wells (i.e., all wells other than the primary antibody controls) and the cells were incubated overnight at 4° C. with slow orbital movement.
Day 6. Contents of the wells was removed and the cells washed four times with 200 μL PBS. 1% BSA/PBS was prepared using Blocker BSA in PBS.
Diluted secondary antibody goat anti-Rb IgG Alexa-488 1:1000, and cell mask-Alexa-647 1:3000 in 1% BSA/PBS in the same mix. Add 50 μL to each well and incubate at room temperature for 1 hour in the dark.
Cells were washed three times with 200 μL PBS, and then incubated for 10 minutes with 100 μL Hoechst dye at 1 μg/mL (20 mM stock) to stain cell nuclei. Wells were then washed with 200 μl PBS, and 100 μL of PBS was added to each well and the plate covered plate with a plastic opaque cover. Plates were stored at […] and covered in aluminum foil until imaged.
Plates were equilibrated to room temperature prior to reading. The bottom of the plate was wiped with 70% isopropanol immediately prior to imaging.
Imaging: • 10×, 4 fields/well, include Top hat smoothing in the analysis protocol.
Supplies/Reagents: • 16% paraformaldehyde: Electron Microscopy Sciences #15710 • Hoechst: Thermofisher #62249 • Blocker BSA in PBS, 10%: Thermofisher #37515 • Blocker BSA in TBS, 10%: Thermofisher #37520 • Goat anti-rabbit or mouse AlexaFluor-488: Thermofisher #A11008 • Cell mask deep red AlexaFluor-647: Thermofisher #C10046 • Wash buffer, PBS: 20×PBS, Thermofisher

CNC(=O)COc1cc2cc(Nc3nc(N4CCC(O[C@H]5C[C@H](N6CCN(c7ccc8c(c7F)[C@@H](C)N([C@H]7CCC(=O)NC7=O)C8=O)[C@H](C)C6)C5)CC4)ncc3Cl)ccc2n(C(C)C)c1=O (single isomer, unassigned) [Compound 30]
DC50: 10 to 50 nM | Dmax: < 50%

CNC(=O)COc1cc2cc(Nc3nc(N4CCC(O[C@H]5C[C@H](N6CCN(c7ccc8c(c7F)[C@@H](C)N([C@@H]7CCC(=O)NC7=O)C8=O)[C@H](C)C6)C5)CC4)ncc3Cl)ccc2n(C(C)C)c1=O (single isomer, unassigned) [Compound 31]
DC50: < 10 nM

CNC(=O)COc1cc2cc(Nc3nc(N4CCC(O[C@H]5C[C@H](N6CCN(c7ccc8c(c7Cl)[C@@H](C)N([C@H]7CCC(=O)NC7=O)C8=O)[C@H](C)C6)C5)CC4)ncc3Cl)ccc2n(C(C)C)c1=O (single isomer, unassigned) [Compound 32]
DC50: < 10 nM | Dmax: ≥ 70%

CNC(=O)COc1cc2cc(Nc3nc(N4CCC(O[C@H]5C[C@H](N6CCN(c7ccc8c(c7Cl)[C@@H](C)N([C@@H]7CCC(=O)NC7=O)C8=O)[C@H](C)C6)C5)CC4)ncc3Cl)ccc2n(C(C)C)c1=O (single isomer, unassigned) [Compound 33]
DC50: < 10 nM | Dmax: ≥ 70%

CNC(=O)COc1cc2cc(Nc3nc(N4CCC(O[C@H]5C[C@H](N6CCN(c7ccc8c(c7Cl)[C@H](C)N([C@H]7CCC(=O)NC7=O)C8=O)[C@H](C)C6)C5)CC4)ncc3Cl)ccc2n(C(C)C)c1=O (single isomer, unassigned) [Compound 34]
DC50: 10 to 50 nM | Dmax: < 50%

CNC(=O)COc1cc2cc(Nc3nc(N4CCC(O[C@H]5C[C@H](N6CCN(c7ccc8c(c7Cl)[C@H](C)N([C@@H]7CCC(=O)NC7=O)C8=O)[C@H](C)C6)C5)CC4)ncc3Cl)ccc2n(C(C)C)c1=O (single isomer, unassigned) [Compound 35]
DC50: < 10 nM | Dmax: 50 to 70%

CNC(=O)COc1cc2cc(Nc3nc(N4CCC(O[C@H]5C[C@H](N6CCC(c7cccc8c7n(C)c(=O)n8C7CCC(=O)NC7=O)CC6)C5)CC4)ncc3Cl)ccc2n(C(C)C)c1=O (stereo partly drawn) [Compound 1, 2-({6-[(5-chloro-2-{4-[(1r,3r)-3-{4-[1-(2,6-dioxopiperidin-3-yl)-3-methyl-2-oxo-2,3-dihydro-1H-1,3-benzodiazol-4-yl]piperidin-1-yl}cyclobutoxy]piperidin-1-yl}pyrimidin-4-yl)amino]-2-oxo-1-(propan-2-yl)-1,2-dihydroquinolin-3-yl}oxy)-N-methylacetamide]
DC50: < 10 nM | Dmax: ≥ 70%

CNC(=O)COc1cc2cc(Nc3nc(N4CCC(O[C@H]5C[C@H](N6CCN(c7cccc8c7n(C)c(=O)n8C7CCC(=O)NC7=O)CC6)C5)CC4)ncc3Cl)ccc2n(C(C)C)c1=O (stereo partly drawn) [Compound 2, 2-({6-[(5-chloro-2-{4-[(1r,3r)-3-{4-[1-(2,6-dioxopiperidin-3-yl)-3-methyl-2-oxo-2,3-dihydro-1H-1,3-benzodiazol-4-yl]piperazin-1-yl}cyclobutoxy]piperidin-1-yl}pyrimidin-4-yl)amino]-2-oxo-1-(propan-2-yl)-1,2-dihydroquinolin-3-yl}oxy)-N-methylacetamide]
DC50: < 10 nM | Dmax: ≥ 70%

CNC(=O)COc1cc2cc(Nc3nc(N4CCC(O[C@H]5C[C@H](N6CCN(c7ccc8c(c7)n(C)c(=O)n8C7CCC(=O)NC7=O)CC6)C5)CC4)ncc3Cl)ccc2n(C(C)C)c1=O (stereo partly drawn) [Compound 3, 2-({6-[(5-chloro-2-{4-[(1r,3r)-3-{4-[1-(2,6-dioxopiperidin-3-yl)-3-methyl-2-oxo-2,3-dihydro-1H-1,3-benzodiazol-5-yl]piperazin-1-yl}cyclobutoxy]piperidin-1-yl}pyrimidin-4-yl)amino]-2-oxo-1-(propan-2-yl)-1,2-dihydroquinolin-3-yl}oxy)-N-methylacetamide]
DC50: < 10 nM | Dmax: ≥ 70%

CNC(=O)COc1cc2cc(Nc3nc(N4CCC(O[C@H]5C[C@H](N6CCC(c7ccc8c(c7)n(C)c(=O)n8C7CCC(=O)NC7=O)CC6)C5)CC4)ncc3Cl)ccc2n(C(C)C)c1=O (stereo partly drawn) [Compound 4, 2-({6-[(5-chloro-2-{4-[(1r,3r)-3-{4-[1-(2,6-dioxopiperidin-3-yl)-3-methyl-2-oxo-2,3-dihydro-1H-1,3-benzodiazol-5-yl]piperidin-1-yl}cyclobutoxy]piperidin-1-yl}pyrimidin-4-yl)amino]-2-oxo-1-(propan-2-yl)-1,2-dihydroquinolin-3-yl}oxy)-N-methylacetamide]
DC50: < 10 nM | Dmax: ≥ 70%

CNC(=O)COc1cc2cc(Nc3nc(N4CCC(O[C@H]5C[C@H](N6CCN(c7ccc(NC8CCC(=O)NC8=O)cc7)CC6)C5)CC4)ncc3Cl)ccc2n(C(C)C)c1=O (stereo partly drawn) [Compound 5, 2-({6-[(5-chloro-2-{4-[(1r,3r)-3-(4-{4-[(2,6-dioxopiperidin-3-yl)amino]phenyl}piperazin-1-yl)cyclobutoxy]piperidin-1-yl}pyrimidin-4-yl)amino]-2-oxo-1-(propan-2-yl)-1,2-dihydroquinolin-3-yl}oxy)-N-methylacetamide]
DC50: 50 to 100 nM

CNC(=O)COc1cc2cc(Nc3nc(N4CCC(O[C@H]5C[C@H](N6CCN(c7ccc8c(n7)n(C)c(=O)n8C7CCC(=O)NC7=O)CC6)C5)CC4)ncc3Cl)ccc2n(C(C)C)c1=O (stereo partly drawn) [Compound 6, 2-({6-[(5-chloro-2-{4-[(1r,3r)-3-{4-[1-(2,6-dioxopiperidin-3-yl)-3-methyl-2-oxo-1H,2H,3H-imidazo[4,5-b]pyridin-5-yl]piperazin-1-yl}cyclobutoxy]piperidin-1-yl}pyrimidin-4-yl)amino]-2-oxo-1-(propan-2-yl)-1,2-dihydroquinolin-3-yl}oxy)-N-methylacetamide]
DC50: < 10 nM | Dmax: ≥ 70%

CCn1c(=O)n(C2CCC(=O)NC2=O)c2ccc(N3CCN([C@H]4C[C@H](OC5CCN(c6ncc(Cl)c(Nc7ccc8c(c7)cc(OCC(=O)NC)c(=O)n8C(C)C)n6)CC5)C4)CC3)cc21 (stereo partly drawn) [Compound 7]
DC50: < 10 nM | Dmax: ≥ 70%

CNC(=O)COc1cc2cc(Nc3nc(N4CCC(O[C@H]5C[C@H](N6CCN(c7ccc8c(c7F)n(C)c(=O)n8C7CCC(=O)NC7=O)CC6)C5)CC4)ncc3Cl)ccc2n(C(C)C)c1=O (stereo partly drawn) [Compound 8, 2-({6-[(5-chloro-2-{4-[(1r,3r)-3-{4-[1-(2,6-dioxopiperidin-3-yl)-4-fluoro-3-methyl-2-oxo-2,3-dihydro-1H-1,3-benzodiazol-5-yl]piperazin-1-yl}cyclobutoxy]piperidin-1-yl}pyrimidin-4-yl)amino]-2-oxo-1-(propan-2-yl)-1,2-dihydroquinolin-3-yl}oxy)-N-methylacetamide]
DC50: < 10 nM | Dmax: ≥ 70%

CNC(=O)COc1cc2cc(Nc3nc(N4CCC(O[C@H]5C[C@H](N6CCN(c7cc8c(cc7F)n(C7CCC(=O)NC7=O)c(=O)n8C)CC6)C5)CC4)ncc3Cl)ccc2n(C(C)C)c1=O (stereo partly drawn) [Compound 9, 2-({6-[(5-chloro-2-{4-[(1r,3r)-3-{4-[1-(2,6-dioxopiperidin-3-yl)-6-fluoro-3-methyl-2-oxo-2,3-dihydro-1H-1,3-benzodiazol-5-yl]piperazin-1-yl}cyclobutoxy]piperidin-1-yl}pyrimidin-4-yl)amino]-2-oxo-1-(propan-2-yl)-1,2-dihydroquinolin-3-yl}oxy)-N-methylacetamide]
DC50: < 10 nM | Dmax: ≥ 70%

CNC(=O)COc1cc2cc(Nc3nc(N4CCC(O[C@H]5C[C@H](N6CCN(c7cc(F)c8c(c7)n(C)c(=O)n8C7CCC(=O)NC7=O)CC6)C5)CC4)ncc3Cl)ccc2n(C(C)C)c1=O (stereo partly drawn) [Compound 10, 2-({6-[(5-chloro-2-{4-[(1r,3r)-3-{4-[1-(2,6-dioxopiperidin-3-yl)-7-fluoro-3-methyl-2-oxo-2,3-dihydro-1H-1,3-benzodiazol-5-yl]piperazin-1-yl}cyclobutoxy]piperidin-1-yl}pyrimidin-4-yl)amino]-2-oxo-1-(propan-2-yl)-1,2-dihydroquinolin-3-yl}oxy)-N-methylacetamide]
DC50: < 10 nM | Dmax: ≥ 70%
